Where two headings read alike, the source gives them in different places.

In test [1] the test system is compound 48/80-induced gastric lesions. The conditions noted are these: rats treated with compound 48/80; known serotonin antagonists; cited from earlier work.
Test [2] concerns apomorphine-induced emesis. Put plainly: apomorphine test in dogs (APO-dog). It is filed as in vivo. The conditions noted are these: Canis lupus familiaris, sc; beagle dogs; apomorphine 0.31 mg/kg s.c. 1 hour after compound; protection from emesis.
Test [3] relates to serotonin-induced contraction of rat caudal artery. The test can be described thus: antagonistic activity on the effect of serotonin on the caudal artery of the rat. Conditions: serotonin 40 ng/ml; minimal concentration reducing contraction amplitude to at least 50% of normal; 5 min. The method, then:
ANTAGONISTIC ACTIVITY ON THE EFFECT OF SEROTONIN ON THE CAUDAL ARTERY OF THE RAT
Caudal arteries from fasted male rats (210-235 g) were used in the test. Two helical strips having a length of 5-6 cm and a width of 2 mm. were obtained from each artery and mounted vertically in a 100 ml organ bath containing an oxygenated Krebs-Henseleit solution. Submaximal contractions of the arterial strips were produced by adding single doses of serotonin (40 ng/ml) to the organ bath for 2 minutes with each time an interval of 10 minutes. The amplitude of the contraction was measured before and 5 minutes after adding the drug. After washing out, the agonist was added again three times in order to see whether the contraction was restored and normalized.

Test [4] concerns tryptamine-induced bilateral tonic seizures. Put plainly: tryptamine (TRY) test in rats, part of the combined APO-TRY-NOR test. Type of test: in vivo, male Wistar rats. The conditions noted are these: Rattus norvegicus, sc, 1.5 h, tryptamine 40 mg/kg i.v. at 90 min.
Test [5] relates to compound 48/80-induced lethality. The test can be described thus: protection of rats from compound 48/80-induced lethality. Conditions: Rattus norvegicus, sc, 4 h, s.c., compound 48/80 0.5 mg/kg i.v. 1 hour after treatment, 50% protected against lethality, read-out: 48/80-test ED50. Type of test: in vivo, male Wistar rats. The text has this: PROTECTION OF RATS FROM COMPOUND 48/80-INDUCED LETHALITY
Compound 48/80, a mixture of oligomers obtained by condensation of 4-methoxy-N-methyl-phenethylamine and formaldehyde has been described as a potent histamine releasing agent (Int. Arch. Allergy, 13, 336 (1958)). The protection from compound 48/80-induced lethal circulatory collapse appears to be a simple way of evaluating quantitatively the antihistaminic activity of test-compounds. Male rats of an inbred Wistar strain, weighing 240-260 g were used in the experiment. After overnight starvation the rats were transferred to conditioned laboratories (temp.=21±1° C., relative humidity=65±5%). The rats were treated subcutaneously or orally with a test compound or with the solvent (NaCl solution, 0.9%). One hour after treatment there was injected intravenously compound 48/80, freshly dissolved in water, at a dose of 0.5 mg/kg (0.2 ml/100 g of body weight). In control experiments, wherein 250 solvent-treated animals were injected with the standard dose of compound 48/80 not more than 2.8% of the animals survived after 4 hours, is therefore considered to be a safe criterion of a protective effect of drug administration.
In this connection the ED50 -values are the minimal doses of the concerned compounds, administered in the subcutaneous way, whereby 50% of the rats are protected against compound 48/80-induced lethality.

Test [6] deals with norepinephrine-induced mortality. The test can be described thus: norepinephrine (NOR) test in rats, part of the combined APO-TRY-NOR test. It is filed as in vivo, male Wistar rats. Conditions: Rattus norvegicus, sc, 2 h, norepinephrine 1.25 mg/kg i.v. at 120 min. The method, then:
THE COMBINED APOMORPHINE (APO)-, TRYPTAMINE (TRY)- AND NOREPINEPHRINE (NOR) TEST IN RATS
The experimental animals used in this test were adult male Wistar rats (weight 240±10 g). After an overnight fast, the animals were treated subcutaneously (1 ml/100 g) with an aqueous solution of the compound under investigation (time=zero) and put in isolated observation cages. […] At the end of this 1 hour period (time=90 minutes) the same animals were injected intravenously with 40 mg/kg of tryptamine (TRY) and the presence of the typical tryptamine-induced bilateral tonic seizures was noted. Two hours after pretreatment (time=120 minutes) finally, the same animals were challenged with 1.25 mg/kg intravenously of norepinephrine (NOR) and possible mortality was looked for up to 60 minutes later.
The table 1 gives the ED50 -values of a number of the compounds under consideration. As used herein, the ED50 -value represents the dose which protects 50% of the animals from apomorphine-, tryptamine- or norepinephrine-induced phenomena.

The test system of test [7] is apomorphine-induced phenomena: agitation and stereotypic chewing. Put plainly: apomorphine (APO) test in rats, part of the combined APO-TRY-NOR test. Type of test: in vivo, male Wistar rats. Conditions: Rattus norvegicus, sc, 0.5 h, read-out: ED50 (APO)-rat.
For test [8], the system named is compound 48/80-induced gastric lesions. The test can be described thus: gastric lesion test: lesions induced by compound 48/80. Type of test: in vivo. Conditions: Rattus norvegicus, read-out: gastric lesion test ED50.
Where [9] appears, read: s.c., rats, apomorphine 1.25 mg/kg i.v. 30 min after compound.
[10] abbreviates: rats, compound 48/80, distension of the stomach completely absent in 50% of rats.

With `CN1CCC(=C2c3ccccc3CCc3sccc32)CC1` [pizotifen], the “prevention of cyanosis of ears and extremities, lesions in the glandular area of the stomach and abnormal gastric distension” value (“prevention” below) in test [1] is listed as “prevent completely”.

On to `CN1CCC(=C2c3ccccc3C=Cc3ccccc32)CC1` [cyproheptadine], for which the “prevention” value in test [1] is listed as “prevent completely”.

As to `CN1CCN2c3ccccc3Cc3ccccc3C2C1` (stereo not drawn) [mianserin], in test [1], the “prevention” value is “prevent completely”.

Consider `Cc1nc2sc3ccccc3n2c(=O)c1CCN1CCC(C(=O)c2ccc(F)cc2)CC1` [compound 6, 3-[2-[4-(4-fluorobenzoyl)-1-piperidinyl]ethyl]-2-methyl-4H-pyrimido[2,1-b]benzothiazol-4-one], for which the ED50 in test [2] was 1.8 mg/kg; in test [4], 0.02 mg/kg; in test [5], 0.16 mg/kg; in test [6], 0.31 mg/kg; in test [7] (setting [9]) it was 5 mg/kg; in test [8] it was 0.08 mg/kg. Besides, the “caudal artery rat ED50” value in test [3] came out at 0.14 ng/mL.

Regarding `Cc1nc2scc(C)n2c(=O)c1CCN1CCC(c2c[nH]c3ccccc23)CC1` [compound 11, 6-[2-[4-(1H-indol-3-yl)-1-piperidinyl]ethyl]-3,7-dimethyl-5H-thiazolo[3,2-a]pyrimidin-5-one], the ED50 came out at 0.004 mg/kg in test [2]; 0.04 mg/kg in test [4]; 0.08 mg/kg in test [5]; 0.16 mg/kg in test [6]; 0.08 mg/kg in test [7] (setting [9]); 0.0025 mg/kg in test [8] (setting [10]). Also, in test [3], the “caudal artery rat ED50” value came out at 0.14 ng/mL.

Take `Cc1nc2sccn2c(=O)c1CCN1CCC(C(=O)c2ccc(F)cc2)CC1` [compound 5, 6-[2-[4-(4-fluorobenzoyl)-1-piperidinyl]ethyl]-7-methyl-5H-thiazolo[3,2-a]pyrimidin-5-one]: the ED50 in test [2] came to 0.015 mg/kg; in test [4], 0.01 mg/kg; in test [5] it was 0.31 mg/kg; in test [6] it was 0.63 mg/kg; in test [7] (setting [9]), 0.02 mg/kg; in test [8] (setting [10]), 0.005 mg/kg. Also, the “caudal artery rat ED50” value in test [3] worked out at 0.14 ng/mL.

As for `Cc1nn2c(=O)c(CCN3CCC(C(=O)c4ccc(F)cc4)CC3)c(C)nc2s1` [compound 7], the ED50 was 0.5 mg/kg in test [2]; 0.31 mg/kg in test [4]; 0.16 mg/kg in test [5]; 0.63 mg/kg in test [6]; 2.5 mg/kg in test [7]; 0.0025 mg/kg in test [8] (setting [10]). Also, the “caudal artery rat ED50” value in test [3] is 1.25 ng/mL.

In the case of `Cc1nc2n(c(=O)c1CCN1CCC(c3c[nH]c4ccccc34)CC1)CCCS2` [compound 3, 3,4-dihydro-7-[2-[4-(1H-indol-3-yl)-1-piperidinyl]ethyl]-8-methyl-2H,6H-pyrimido[2,1-b][1,3]thiazin-6-one], the ED50 in test [2] was 0.015 mg/kg; in test [4] it was 0.63 mg/kg; in test [5] it was 0.04 mg/kg; in test [6], 1.25 mg/kg; in test [7], 0.63 mg/kg; in test [8] (setting [10]), 0.02 mg/kg. In addition, the “caudal artery rat ED50” value in test [3] came to 0.32 ng/mL.

As to `Cc1nc2sccn2c(=O)c1CCN1CCC(c2c[nH]c3ccccc23)CC1` [compound 12, 6-[2-[4-(1H-indol-3-yl)-1-piperidinyl]ethyl]-7-methyl-5H-thiazolo[3,2-a]pyrimidin-5-one], the ED50 was 0.08 mg/kg in test [2]; 0.08 mg/kg in test [4]; 0.02 mg/kg in test [5]; 0.31 mg/kg in test [6]; 0.08 mg/kg in test [7] (setting [9]); 0.08 mg/kg in test [8] (setting [10]). Also, the “caudal artery rat ED50” value in test [3] was found to be 0.08 ng/mL.

For `CN1C[C@H](CNC(=O)OCc2ccccc2)C[C@@H]2c3cccc4c3c(cn4C)C[C@H]21` [metergoline], the “prevention” value in test [1] was “prevent completely”.

With `O=C(CCCN1CCC2(CC1)C(=O)NCN2c1ccccc1)c1ccc(F)cc1` [spiperone], the “prevention” value in test [1] is recorded as “prevent completely”.

In the case of `CN(C)CCCSc1ccccc1NC(=O)/C=C/c1ccccc1` [cinanserin], the “prevention” value in test [1] is recorded as “prevent completely”.

Turning to `NC(=O)C1(N2CCCCC2)CCN(CCCC(=O)c2ccc(F)cc2)CC1` [pipamperone], the “prevention” value in test [1] is given as “prevent completely”.

In the case of `CC[C@@H](CO)NC(=O)[C@@H]1C=C2c3cccc4c3c(cn4C)C[C@H]2N(C)C1` [methysergide], the “prevention” value in test [1] is “prevent completely”.

For `Cc1nc2n(c(=O)c1CCN1CCC(C(=O)c3ccc(F)cc3)CC1)CCS2` [compound 1, 6-[2-[4-(4-fluorobenzoyl)-1-piperidinyl]ethyl]-2,3-dihydro-7-methyl-5H-thiazolo[3,2-a]pyrimidin-5-one], the ED50 in test [2] came out at 0.03 mg/kg; in test [4] it was 0.16 mg/kg; in test [5], 0.63 mg/kg; in test [6], 0.63 mg/kg; in test [7] (setting [9]), 0.31 mg/kg; in test [8] (setting [10]) it was 0.0005 mg/kg. Also, the “caudal artery rat ED50” value in test [3] was found to be 0.32 ng/mL.

The values are drawn from US4548938A, “5-H-1,3,4-thiadiazolo[3,2-a]pyrimidin-5-one compounds” (Janssen Pharmaceutica N.V., priority 1985, dated 1985).
